Experimental data reported in patent US20060069132A1, “Azolecarboxamide herbicides” (priority 2004, published 2006).

Tests used:
large crabgrass = test: Test A pre-/postemergence herbicide test; type: in vivo, Digitaria sanguinalis; conditions: for Plant response rating, Crabgrass, Large: Postemergence; for Crabgrass, Large plant response rating: Preemergence
Outline: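 Greenhouse injury scoring (0–100, complete control = 100) at approximately ten days follows simultaneous pre- and postemergence application. Soil received a directed spray after seeding; seedlings of 2–10 cm at the one- to two-leaf stage were sprayed to runoff.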

blackgrass = test: Test B postemergence herbicide test; type: in vivo, Alopecurus myosuroides; conditions: Postemergence, scale 0 (no effect) to 100 (complete control); for Blackgrass plant response rating: 125 g ai/ha; for Plant response rating, Blackgrass: 500 g ai/ha, visual rating after 13 to 15 days
Outline: (§1)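 Postemergence plants were sprayed with formulated test chemicals at 2 to 18 cm height (1- to 4-leaf stage); paddy species were grown to the 2-leaf stage. After 13 to 15 days in a greenhouse, injury was rated visually against untreated controls on a 0–100 scale (0 = no effect, 100 = complete control).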

ducksalad = test: Test B flooded paddy test; type: in vivo, Heteranthera limosa; conditions: 1000 g ai/ha, visual rating, scale 0 to 100 (0 no effect, 100 complete control), 13 to 15 days
Outline: as §1

cocklebur = test: Test C pre-/postemergence herbicide test; type: in vivo, Xanthium strumarium; conditions: for Cocklebur plant response rating: 500 g ai/ha
Outline: (§2)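 Pre/post spray; non-phytotoxic solvent + surfactant. Post-timing 1–4 leaves, 2–18 cm. Read-out: visual % control vs untreated, day 12–14, greenhouse.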

giant foxtail = test: Test C pre-/postemergence herbicide test; type: in vivo, Setaria faberi; conditions: for Foxtail, Giant plant response rating: 500 g ai/ha
Outline: as §2

johnsongrass = test: Test C pre-/postemergence herbicide test; type: in vivo, Sorghum halepense; conditions: for Johnsongrass plant response rating: 500 g ai/ha
Outline: as §2

common ragweed = test: Test C pre-/postemergence herbicide test; type: in vivo, Ambrosia elatior; set-up: key to Plant response rating, Ragweed: 0 = no effect, 100 = complete control; conditions: for Ragweed plant response rating: 500 g ai/ha
Outline: as §2

[1] = test system: common (oilseed) sunflower; test: Test C pre-/postemergence herbicide test; type: in vivo, Helianthus annuus; conditions: for Plant response rating, Sunflower / Plant response rating (0 = no effect, 100 = complete control), Sunflower: preemergence; for Plant response rating (0 = no effect, 100 = complete control), Sunflower: 62 g ai/ha
Outline: as §2

[2] = 500 g ai/ha, 0 to 100 scale, 0 no effect, 100 complete control
[3] = 2000 g ai/ha, 0 to 100 scale, 0 no effect, 100 complete control
[4] = 500 g ai/ha, visual rating, 0 to 100 scale (0 no effect, 100 complete control)
[5] = 31 g ai/ha, preemergence, scale 0 to 100
[6] = 125 g ai/ha, scale 0-100, preemergence
[7] = Postemergence, 125 g ai/ha, scale 0 to 100, 0 no effect, 100 complete control
[8] = postemergence, 62 g ai/ha, scale 0 to 100
[9] = postemergence, 31 g ai/ha, scale 0 to 100
[10] = 125 g ai/ha, scale 0 (no effect) to 100 (complete control), visual, 12 to 14 days, preemergence
[11] = 250 g ai/ha, scale 0 to 100 (0 no effect, 100 complete control), visual, 12 to 14 days, preemergence
[12] = Postemergence, 250 g ai/ha, scale 0 to 100, 0 no effect, 100 complete control
[13] = Preemergence, scale 0 to 100, 0 no effect, 100 complete control

C=Cn1nc(C(C)(C)C)cc1C(=O)Nc1cccc(C(=O)NCC)c1 [Compound 33]
Plant response rating, Crabgrass, Large (large crabgrass; [2]): 65 | Plant response rating, Crabgrass, Large (large crabgrass; [3]): 85 | Crabgrass, Large plant response rating (large crabgrass; [4]): 90 | Crabgrass, Large plant response rating (large crabgrass; [3]): 95 | Blackgrass plant response rating (blackgrass): 20 | Plant response rating, Blackgrass (blackgrass): 20 | Ducksalad plant response rating (ducksalad): 90 | Plant response rating, Cocklebur (cocklebur; [5]): 0 | Plant response rating (0 = no effect, 100 = complete control), Cocklebur (cocklebur; 62 g ai/ha, preemergence): 0 | Plant response rating, Cocklebur (cocklebur; [6]): 30 | Plant response rating, Cocklebur (cocklebur; [7]): 70 | Plant response rating, Cocklebur (cocklebur; postemergence, 16 g ai/ha, scale 0 to 100): 20 | Plant response rating, Cocklebur (cocklebur; [8]): 50 | Plant response rating, Foxtail, Giant (giant foxtail; [5]): 10 | Plant response rating (0 = no effect, 100 = complete control), Foxtail, Giant (giant foxtail; 62 g ai/ha, preemergence): 20 | Plant response rating, Foxtail, Giant (giant foxtail; [6]): 60 | Plant response rating, Foxtail, Giant (giant foxtail; [7]): 30 | Plant response rating, Foxtail, Giant (giant foxtail; [9]): 30 | Plant response rating, Foxtail, Giant (giant foxtail; [8]): 30 | Plant response rating, Johnsongrass (johnsongrass; [5]): 20 | Plant response rating (0 = no effect, 100 = complete control), Johnsongrass (johnsongrass; 62 g ai/ha, preemergence): 20 | Plant response rating, Johnsongrass (johnsongrass; [6]): 80 | Plant response rating, Johnsongrass (johnsongrass; [7]): 90 | Plant response rating, Johnsongrass (johnsongrass; [9]): 70 | Plant response rating, Johnsongrass (johnsongrass; [8]): 90 | Plant response rating, Ragweed (common ragweed; [5]): 0 | Plant response rating (0 = no effect, 100 = complete control), Ragweed (common ragweed; 62 g ai/ha, preemergence): 0 | Plant response rating, Ragweed (common ragweed; postemergence, 125 g ai/ha, scale 0 to 100): 70 | Plant response rating, Ragweed (common ragweed; [8]): 60 | Plant response rating, Sunflower ([1]; 31 g ai/ha, scale 0 to 100): 0 | Plant response rating (0 = no effect, 100 = complete control), Sunflower [1]: 0

C=CCNC(=O)c1cccc(NC(=O)c2cc(C(C)(C)C)nn2CC)c1 [Compound 46]
Plant response rating, Crabgrass, Large (large crabgrass; [2]): 75 | Plant response rating, Crabgrass, Large (large crabgrass; [3]): 90 | Crabgrass, Large plant response rating (large crabgrass; [4]): 65 | Crabgrass, Large plant response rating (large crabgrass; [3]): 90 | Blackgrass plant response rating (blackgrass): 10 | Plant response rating, Blackgrass (blackgrass): 20 | Ducksalad plant response rating (ducksalad): 90 | Plant response rating (0 = no effect, 100 = complete control), Cocklebur (cocklebur; 62 g ai/ha, preemergence): 0 | Plant response rating, Cocklebur (cocklebur; [10]): 40 | Plant response rating, Cocklebur (cocklebur; [11]): 90 | Cocklebur plant response rating (cocklebur; Postemergence, scale 0 to 100): 90 | Plant response rating, Cocklebur (cocklebur; [7]): 70 | Plant response rating, Cocklebur (cocklebur; [12]): 70 | Cocklebur plant response rating (cocklebur; [13]): 90 | Plant response rating, Cocklebur (cocklebur; [8]): 60 | Plant response rating (0 = no effect, 100 = complete control), Foxtail, Giant (giant foxtail; 62 g ai/ha, preemergence): 10 | Plant response rating, Foxtail, Giant (giant foxtail; [10]): 60 | Plant response rating, Foxtail, Giant (giant foxtail; [11]): 100 | Foxtail, Giant plant response rating (giant foxtail; Postemergence, scale 0 to 100): 70 | Plant response rating, Foxtail, Giant (giant foxtail; [7]): 60 | Plant response rating, Foxtail, Giant (giant foxtail; [12]): 60 | Foxtail, Giant plant response rating (giant foxtail; [13]): 100 | Plant response rating, Foxtail, Giant (giant foxtail; [8]): 40 | Plant response rating (0 = no effect, 100 = complete control), Johnsongrass (johnsongrass; 62 g ai/ha, preemergence): 50 | Plant response rating, Johnsongrass (johnsongrass; [10]): 80 | Plant response rating, Johnsongrass (johnsongrass; [11]): 90 | Johnsongrass plant response rating (johnsongrass; Postemergence, scale 0 to 100): 90 | Plant response rating, Johnsongrass (johnsongrass; [7]): 60 | Johnsongrass plant response rating (johnsongrass; [13]): 100 | Plant response rating, Johnsongrass (johnsongrass; [8]): 60 | Plant response rating (0 = no effect, 100 = complete control), Ragweed (common ragweed; 62 g ai/ha, preemergence): 10 | Plant response rating, Ragweed (common ragweed; [10]): 40 | Plant response rating, Ragweed (common ragweed; [11]): 90 | Ragweed plant response rating (common ragweed; Postemergence, scale 0 to 100): 80 | Plant response rating, Ragweed (common ragweed; [12]): 80 | Ragweed plant response rating (common ragweed; [13]): 90 | Plant response rating, Ragweed (common ragweed; [8]): 70 | Plant response rating (0 = no effect, 100 = complete control), Sunflower [1]: 0 | Plant response rating, Sunflower ([1]; 125 g ai/ha, scale 0 (no effect) to 100 (complete control), visual, 12 to 14 days): 10 | Plant response rating, Sunflower ([1]; 250 g ai/ha, scale 0 to 100 (0 no effect, 100 complete control), visual, 12 to 14 days): 10 | Sunflower plant response rating ([1]; Preemergence, 500 g ai/ha, scale 0 to 100, 0 no effect, 100 complete control): 10
